13 compounds from patent US20240109917A1 (ACTELION PHARMACEUTICALS LTD, priority 2020, published 2024) can be followed below.

For experiment [1], the target named is His6-TEV-PDGFRβ (557-1016) (Homo sapiens (Human), UniProt P09619). The experiment is described as follows: PDGFRβ HTRF Assay. Particulars: read-out: PDGFR HTRF IC50. It is filed as biochemical. Here is the method:
Instrumentation: a. Compound liquid handling: LabCyte Echo; b. Reagent liquid handling: Thermo Scientific Multidrop Combi; c. BMG PHERAStar multilabel plate reader.
Protein Reagent: His6-TEV-PDGFRβ Protein Prep prepared at Accelagen.
(§1) II. Methods and Procedures
Assay buffer stock solution, contains 50 mM Hepes, 10 mM MgCl2, 1 mM EGTA, and 0.01% Brij-35, 0.01% ovalbumin, 2 mM DTT at pH 7.5, in molecular biology grade water. Store at room temperature.
DTT, 2 M in molecular biology grade water, store at −20° C. in aliquots.
Ovalbumin, 10% or 100 mg/mL, prepare fresh on experimental day.
PDGFRβ, 116 μM (PDGFRb_08 Prep 02), produced at Accelagen. Store at −80° C. in aliquots.
TK-biotin peptide, […] in molecular biology grade water, store at −20° C. in aliquots.
ATP, 100 mM in molecular biology grade water, store at −20° C. in aliquots.
HTRF KinEASE-TK kit: Allow the contents of the Cisbio kit to warm up to room temperature before use. This kit contains HTRF detection buffer, TK-Antibody labeled with Eu^3+-cryptate, TK-substrate biotin and Streptavidin-XL665.
TK Substrate-Biotin, reconstitute 500 μg lyopholized with 574 μL molecular biology grade water to prepare a 500 μM stock; After use, aliquot the rest and store at −20° C.
TK Antibody-Cryptate, reconstitute lyophilized with 1 mL of molecular biology grade water (100× solution) then add 99 mL detection buffer to prepare a ready to use TK-antibody-cryptate solution; the concentration of the TK-antibody-cryptate reagent is not known. After use, aliquot the rest and store at −20° C.
Streptavidin-XL665, reconstitute 3 mg lyophilized with 3 mL molecular biology grade water to prepare a 1 mg/mL or 16.67 μM stock; MW=60 kDa; After use, aliquot the rest and store at −20° C.
Freshly Prepared Solutions:
Assay buffer. Dilute 5× Kinase buffer 5-fold with molecular biology grade water and add DTT to 2 mM and ovalbumin to 0.1 mg/mL (or 0.01%).
2× protein solution. Make a working solution of […] PDGFRβ in assay buffer. Keep on ice until use to maintain enzyme stability.
2× substrate solution. Make a working solution of 1.6 mM ATP and 1 μM TK-substrate biotin peptide in assay buffer.
3× quench/detection solution. Make a working solution of 0.1875 μM SA-XL665 and the TK-antibody cryptate diluted by 12 of total quench/detection volume in assay buffer.
Keep final streptavidin/biotin ratio at 1 to 8.
Example of 3× quench/detection solution preparation: 8 mL total volume.
TK antibody-cryptate in detection buffer—4000 μL
The kinase reaction is stopped by the addition of the detection reagents which contain EDTA (detection step).
Assay in white ProxiPlate 384-well
Step 1. Dispensing inhibitors/DMSO and low control: Using the ECHO 555 acoustic dispenser, spot desired compound serial dilutions in DMSO, NEAT DMSO to represent the uninhibited enzyme control, and 10 μM final [imatinib] to the represent the 100% inhibited enzyme control
Step 2. PDGFRβ E+I pre-incubation: Add 2 μL 2× protein solution to columns 1-24 using the Multidrop Combi. Centrifuge at 1000 rpm for 1 min. Incubate 30 min at RT
Step 2. Enzymatic reaction: Add 2 μL substrate solution to columns 1-24 to initiate the reaction using the Multidrop Combi; cover/seal the assay plate to reduce evaporation. Centrifuge at 1000 rpm for 1 min. Incubate at room temperature for 3 hours.
Step 3. Quench/Detection: Add 2 μl 3× quench/detection solution to columns 1-24 using the Multidrop Combi; cover/seal the plate. Centrifuge 1 min 1000 rpm. Incubate at RT for 60 min. Read the plate in PHERAstar (or similar instrument) on HTRF setting at excitation 337 nm—dual emission—665/620 nm ratio.
(§2) III. Calculations and Formulas
HTRF ratio values calculated by the instrument (Ratio is acceptor counts/donor counts*10,000) is exported from the plate reader and used in data analysis. […] Assay statistics can include Robust Z′ and Signal to Background.
% Inhibition Calculation: Percent inhibition will be calculated for sample wells based on the equation: […]
For orientation: TR-FRET usually uses a lanthanide donor and a delayed reading to cut background.

Experiment [2] has as its target Tb-labeled inactive PDGFRβ (Homo sapiens (Human), UniProt P09619). The experiment in a line: PDGFRβ LanthaScreen Assay. Particulars: read-out: PDGFR Lantha IC50. It counts as binding.
The target in a further experiment is VEGFR2, unphosphorylated (Homo sapiens (Human), UniProt P35968). The experiment is described as follows: VEGFR ADP GLO Assay. It counts as biochemical. On the procedure:
as §1
Assay buffer stock contains 50 mM HEPES pH7.5, 10 mM MgCl2, 0.01% Brij-35, and 1 mM EGTA.
Unphosphorylated VEGFR2. […] Store at −80° C. in aliquots.
Sonicate 10 mg/ml Srctide solution for 10 minutes and then vacuum filter.
Freshly Prepared Solutions
2× kinase solution. Make a working solution of 10 nM unphosphorylated VEGFR2 in Assay buffer. Vacuum filter 2× kinase solution prior to running assay. Keep on ice until use.
2× substrate/ATP solution. Make a working solution of 2 mg/mL srctide and 2.4 mM ATP in Assay buffer. Keep on ice until use.
Step 1. Dispensing inhibitors/controls: Using Echo, dispense 10 nL/well compound serial dilutions in DMSO to columns 1-22 (in 384-well plates) or columns 1-44 (in 1536-well plates). Dilution series=11 pt, 3-fold dilutions. The top compound concentration in the source plate is 4 mM. The top compound concentration in the assay plate is 10 uM. Using Echo, dispense 10 nl/well DMSO to column 23 (in 384-well plates) or columns 45-47 (in 1536-well plates). […] These wells will serve as positive control wells.
Step 2. Pre-incubation of inhibitors with kinase: Add 2 μL/well 2× kinase solution. Centrifuge at 1000 rpm for 1 min. Incubate at room temperature for 30 min.
Step 3. Kinase cascade reaction: Add 2 μL/well 2× substrate/ATP solution to initiate kinase reactions. Centrifuge at 1000 rpm for 1 min. Incubate at room temperature for 180 min.
Final concentrations of components in the assay:
Step 4. Quench: Add 2 uL/well ADP Glo Reagent+0.05% CHAPS. Centrifuge at 1000 rpm for 1 min; Incubate at room temperature for one hour.
Step 5. Detection: Add 2 uL/well Kinase Detection Reagent+0.05% CHAPS. Centrifuge at 1000 rpm for 1 min; Incubate at room temperature for 1 hour; Read Luminescence on a plate reader.
as §2
IC50 values are determined from a 4-parameter fit, using the following equation: Y=Bottom+(Top−Bottom)/(1+10^(Log IC50-X)*Hill slope) where X=log10 of the compound concentration; top can be defined by PC; bottom defined by NC.
A general note: In ADP-Glo the light output rises with the ADP produced.

Sequence of VEGFR2, unphosphorylated (P35968 20-1356): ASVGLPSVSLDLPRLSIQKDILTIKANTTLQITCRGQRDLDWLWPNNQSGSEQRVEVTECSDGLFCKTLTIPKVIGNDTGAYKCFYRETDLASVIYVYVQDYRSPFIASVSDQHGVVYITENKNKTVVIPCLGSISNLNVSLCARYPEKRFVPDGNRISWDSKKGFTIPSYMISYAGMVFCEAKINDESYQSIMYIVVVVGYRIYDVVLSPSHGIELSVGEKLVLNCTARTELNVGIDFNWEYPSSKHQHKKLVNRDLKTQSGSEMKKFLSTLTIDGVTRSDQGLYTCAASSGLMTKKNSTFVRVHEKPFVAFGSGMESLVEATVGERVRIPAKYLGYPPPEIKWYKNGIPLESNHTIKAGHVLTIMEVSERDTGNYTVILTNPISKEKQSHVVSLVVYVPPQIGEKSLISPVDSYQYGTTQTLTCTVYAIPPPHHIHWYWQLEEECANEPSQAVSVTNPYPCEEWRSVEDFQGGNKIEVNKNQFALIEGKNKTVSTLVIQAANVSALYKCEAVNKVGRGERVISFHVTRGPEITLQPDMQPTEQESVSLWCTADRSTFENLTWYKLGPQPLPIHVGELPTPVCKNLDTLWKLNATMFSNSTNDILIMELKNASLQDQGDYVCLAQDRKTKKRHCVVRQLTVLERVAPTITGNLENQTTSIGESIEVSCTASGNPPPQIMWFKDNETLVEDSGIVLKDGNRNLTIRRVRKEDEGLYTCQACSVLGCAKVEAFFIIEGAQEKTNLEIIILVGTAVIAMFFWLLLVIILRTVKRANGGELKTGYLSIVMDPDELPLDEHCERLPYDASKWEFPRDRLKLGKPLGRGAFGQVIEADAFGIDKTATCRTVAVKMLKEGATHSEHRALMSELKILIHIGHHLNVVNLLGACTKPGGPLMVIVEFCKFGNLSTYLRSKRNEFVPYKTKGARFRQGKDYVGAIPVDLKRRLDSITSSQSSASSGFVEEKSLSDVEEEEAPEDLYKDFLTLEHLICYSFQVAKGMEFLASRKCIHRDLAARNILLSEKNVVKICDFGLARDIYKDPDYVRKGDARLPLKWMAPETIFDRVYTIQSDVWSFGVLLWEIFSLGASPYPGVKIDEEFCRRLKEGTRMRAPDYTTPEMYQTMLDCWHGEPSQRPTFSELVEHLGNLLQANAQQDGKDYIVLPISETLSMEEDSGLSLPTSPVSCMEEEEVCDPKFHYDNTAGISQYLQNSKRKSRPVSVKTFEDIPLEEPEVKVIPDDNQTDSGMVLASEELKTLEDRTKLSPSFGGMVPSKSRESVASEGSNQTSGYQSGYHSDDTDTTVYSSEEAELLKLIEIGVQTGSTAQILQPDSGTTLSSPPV
Sequence of His6-TEV-PDGFRβ (557-1016) (P09619 557-1016): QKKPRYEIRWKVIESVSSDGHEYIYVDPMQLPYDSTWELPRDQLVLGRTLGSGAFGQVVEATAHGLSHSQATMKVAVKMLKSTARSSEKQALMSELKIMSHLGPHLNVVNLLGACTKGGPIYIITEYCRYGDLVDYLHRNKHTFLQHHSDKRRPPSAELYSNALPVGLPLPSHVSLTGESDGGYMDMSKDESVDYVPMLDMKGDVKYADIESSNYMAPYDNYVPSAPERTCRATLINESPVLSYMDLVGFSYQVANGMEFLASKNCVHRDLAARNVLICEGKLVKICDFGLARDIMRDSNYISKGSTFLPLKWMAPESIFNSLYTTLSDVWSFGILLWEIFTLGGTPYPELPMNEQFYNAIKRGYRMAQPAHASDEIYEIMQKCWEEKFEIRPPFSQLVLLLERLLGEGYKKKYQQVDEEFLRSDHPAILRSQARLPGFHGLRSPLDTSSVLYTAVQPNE
Sequence of Tb-labeled inactive PDGFRβ (P09619 33-1106): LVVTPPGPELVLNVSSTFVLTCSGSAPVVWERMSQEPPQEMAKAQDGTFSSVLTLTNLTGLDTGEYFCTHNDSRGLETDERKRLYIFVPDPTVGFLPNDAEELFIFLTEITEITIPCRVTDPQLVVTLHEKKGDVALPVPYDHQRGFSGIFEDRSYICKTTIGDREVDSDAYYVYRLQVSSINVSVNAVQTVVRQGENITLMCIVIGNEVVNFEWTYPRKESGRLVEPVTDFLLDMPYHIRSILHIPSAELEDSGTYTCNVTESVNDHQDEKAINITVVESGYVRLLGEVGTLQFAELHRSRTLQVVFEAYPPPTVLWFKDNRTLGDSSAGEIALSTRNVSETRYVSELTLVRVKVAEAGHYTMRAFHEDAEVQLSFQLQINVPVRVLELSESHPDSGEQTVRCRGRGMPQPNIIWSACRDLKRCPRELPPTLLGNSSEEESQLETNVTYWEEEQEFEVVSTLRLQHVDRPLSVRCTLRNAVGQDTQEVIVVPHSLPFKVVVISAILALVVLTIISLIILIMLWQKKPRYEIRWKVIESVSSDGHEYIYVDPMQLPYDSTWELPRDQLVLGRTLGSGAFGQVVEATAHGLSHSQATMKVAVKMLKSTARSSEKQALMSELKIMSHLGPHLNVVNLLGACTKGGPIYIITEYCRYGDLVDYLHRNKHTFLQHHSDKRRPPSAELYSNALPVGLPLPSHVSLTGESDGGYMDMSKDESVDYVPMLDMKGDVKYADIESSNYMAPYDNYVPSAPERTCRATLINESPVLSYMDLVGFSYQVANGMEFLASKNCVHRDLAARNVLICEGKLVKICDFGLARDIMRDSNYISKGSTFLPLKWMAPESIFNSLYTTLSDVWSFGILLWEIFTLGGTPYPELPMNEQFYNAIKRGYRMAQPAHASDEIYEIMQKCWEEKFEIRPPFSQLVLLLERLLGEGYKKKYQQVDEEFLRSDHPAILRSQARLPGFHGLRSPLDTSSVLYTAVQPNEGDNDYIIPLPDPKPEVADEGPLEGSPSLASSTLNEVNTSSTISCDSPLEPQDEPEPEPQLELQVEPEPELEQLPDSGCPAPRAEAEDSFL

As to `Cc1ncc(C(=O)NCCN2CCCC2(C)C)cc1NC(=O)c1cnn2cc(-c3ccc(N)nc3)sc12` [Example 130, 2-(6-aminopyridin-3-yl)-N-(5-((2-(2,2-dimethylpyrrolidin-1-yl)ethyl)carbamoyl)-2-methylpyridin-3-yl)pyrazolo[5,1-b]thiazole-7-carboxamide], the IC50 in experiment [1] is 0.5 nM; in experiment [2], 4.3 nM; on VEGFR2, unphosphorylated it was > 7500 nM.
Regarding `Cc1ncc(C(=O)NCCN2CCCC2(C)C)cc1NC(=O)c1cnn2cc(-c3cnn(C)n3)sc12` [Example 131, N-(5-((2-(2,2-dimethylpyrrolidin-1-yl)ethyl)carbamoyl)-2-methylpyridin-3-yl)-2-(2-methyl-2H-1,2,3-triazol-4-yl)pyrazolo[5,1-b]thiazole-7-carboxamide], the 50% inhibitory concentration (IC50) in experiment [1] is 1.7 nM; in experiment [2], 9.1 nM; on VEGFR2, unphosphorylated it was > 7500 nM.
As to `Cc1ncc(C(=O)NCCN2CCCC2(C)C)cc1NC(=O)c1cnn2cc(-c3ccc(C(=O)O)cc3)sc12` [Example 133, 4-(7-((5-((2-(2,2-dimethylpyrrolidin-1-yl)ethyl)carbamoyl)-2-methylpyridin-3-yl)carbamoyl)pyrazolo[5,1-b]thiazol-2-yl)benzoic acid], the IC50 in experiment [1] was 1.5 nM; in experiment [2], 6.3 nM; against VEGFR2, unphosphorylated, > 7500 nM.
The corresponding values for `Cc1ncc(C(=O)NCCN2CCCC2(C)C)cc1NC(=O)c1cnn2cc(-c3cccc(C(=O)O)c3)sc12` [Example 134, 3-(7-((5-((2-(2,2-dimethylpyrrolidin-1-yl)ethyl)carbamoyl)-2-methylpyridin-3-yl)carbamoyl)pyrazolo[5,1-b]thiazol-2-yl)benzoic acid] are 2.9 nM, 13.9 nM and > 7500 nM.
In the same order, the values of `Cc1ncc(C(=O)NCCN2CCCC2(C)C)cc1NC(=O)c1cnn2cc(-c3cccnc3)sc12` [Example 135, N-(5-((2-(2,2-dimethylpyrrolidin-1-yl)ethyl)carbamoyl)-2-methylpyridin-3-yl)-2-(pyridin-3-yl)pyrazolo[5,1-b]thiazole-7-carboxamide] are 1.3 nM, 10.6 nM and > 7500 nM.
As to `Cc1ccc(-c2cn3ncc(C(=O)Nc4cc(C(=O)NCCN5CCCC5(C)C)cnc4C)c3s2)cn1` [Example 136, N-(5-((2-(2,2-dimethylpyrrolidin-1-yl)ethyl)carbamoyl)-2-methylpyridin-3-yl)-2-(6-methylpyridin-3-yl)pyrazolo[5,1-b]thiazole-7-carboxamide], the IC50 in experiment [1] was 1.4 nM; in experiment [2], 1 nM; on VEGFR2, unphosphorylated, > 7500 nM.
In the same order, the values of `Cc1ncc(C(=O)NCCN2CCCC2(C)C)cc1NC(=O)c1cnn2cc(-c3ccc(=O)[nH]c3)sc12` [Example 137, N-(5-((2-(2,2-dimethylpyrrolidin-1-yl)ethyl)carbamoyl)-2-methylpyridin-3-yl)-2-(6-oxo-1,6-dihydropyridin-3-yl)pyrazolo[5,1-b]thiazole-7-carboxamide] are 2.2 nM, 24.4 nM and > 2500 nM.
For the compound `Cc1ncc(C(=O)NCCN2CCCC2(C)C)cc1NC(=O)c1cnn2cc(-c3ccc(=O)n(C)c3)sc12` [Example 138, N-(5-((2-(2,2-dimethylpyrrolidin-1-yl)ethyl)carbamoyl)-2-methylpyridin-3-yl)-2-(1-methyl-6-oxo-1,6-dihydropyridin-3-yl)pyrazolo[5,1-b]thiazole-7-carboxamide], the IC50 was 3.7 nM in experiment [1]; 39.6 nM in experiment [2]; > 7500 nM at VEGFR2, unphosphorylated.
On to `Cc1ncc(C(=O)NCCN2[C@H](C)CCC[C@@H]2C)cc1NC(=O)c1cnn2cc(-c3cnn(C)c3)sc12` [Example 164], for which the IC50 is 1.5 nM in experiment [1]; 6.2 nM in experiment [2]; > 7500 nM against VEGFR2, unphosphorylated.
Regarding `Cc1ncc(C(=O)NCCN2CC(C)(C)C2)cc1NC(=O)c1cnn2cc(-c3cnn4c3COCC4)sc12` [Example 489, 2-(6,7-dihydro-4H-pyrazolo[5,1-c][1,4]oxazin-3-yl)-N-(5-((2-(3,3-dimethylazetidin-1-yl)ethyl)carbamoyl)-2-methylpyridin-3-yl)pyrazolo[5,1-b]thiazole-7-carboxamide], the IC50 in experiment [1] is 0.5 nM; in experiment [2], 5.5 nM; at VEGFR2, unphosphorylated, > 7500 nM.
Take `Cc1ncc(C(=O)NCCN2CCCC2(C)C)cc1NC(=O)c1cnn2cc(-c3ccnc(N(C)C)c3)sc12` [Example 490, 2-(2-(dimethylamino)pyridin-4-yl)-N-(5-((2-(2,2-dimethylpyrrolidin-1-yl)ethyl)carbamoyl)-2-methylpyridin-3-yl)pyrazolo[5,1-b]thiazole-7-carboxamide]: the IC50 in experiment [1] was 0.3 nM; in experiment [2], 2.3 nM; on VEGFR2, unphosphorylated, > 7500 nM.
In the same order, the values of `Cc1ncc(C(=O)NCCNC2CCC2)cc1NC(=O)c1cnn2cc(-c3cnn4c3CCC4)sc12` [Example 491, N-(5-((2-(cyclobutylamino)ethyl)carbamoyl)-2-methylpyridin-3-yl)-2-(5,6-dihydro-4H-pyrrolo[1,2-b]pyrazol-3-yl)pyrazolo[5,1-b]thiazole-7-carboxamide] are 0.3 nM, 4.9 nM and > 7500 nM.
On to `Cc1ncc(NC(=O)CCC2CCCN2C)cc1NC(=O)c1cnn2cc(-c3cnn(C)c3)sc12` (stereo not drawn) [Example 492, 2-(1-methyl-1H-pyrazol-4-yl)-N-(2-methyl-5-(3-(1-methylpyrrolidin-2-yl)propanamido)pyridin-3-yl)pyrazolo[5,1-b]thiazole-7-carboxamide], for which the IC50 is 0.7 nM in experiment [1]; 15 nM in experiment [2]; > 7500 nM against VEGFR2, unphosphorylated.

As a reminder, the IC50 is the concentration needed to halve the response being measured.
